Data published in patent publication US9102967B2, “PmST2 enzyme for chemoenzymatic synthesis of α-2-3-sialylglycolipids” (priority 2012, dated 2015).

Assays:
MBP-PmST2-His6 [1] = target: T1, MBP-PmST2-His6 (Pasteurella multocida, UniProt Q9CNC4, M25T); assay: Acceptor substrate specificity studies (CE analysis); format: biochemical; conditions: for % product formation: acceptor 2 mM, CMP-Neu5Ac 4 mM, 10 min, 37° C., pH 8.0, 0.4% Triton X-100; for % Relative: relative to LacβPro-triazole-C14 = 100
T1 construct: used to clone of the full-length MBP-PmST2-His6 fusion protein in pMa1-c4X vector; made in house; host or cells: E. coli BL21(DE3)
Description: Enzymatic Reactions. All reactions were carried out in duplicate for 10 min at 37° C. in a total volume of 10 μl in Tris-HCl (200 mM, pH 8.0) containing an acceptor substrate (2 mM), CMP-Neu5Ac (4 mM), 0.4% Triton X-100, and enzyme (3.6 μg μl^−1). Addition of 15 μl of cold 95% ethanol was used to terminate each reaction. All reactions were incubated on ice for 10 min and were then centrifuged for 5 min at 13,000 rpm. The supernatant was transferred to a new vial for CE analysis.

MBP-PmST2-His6 [2] = target: T1, MBP-PmST2-His6; format: biochemical; conditions: for Km / kcat / Vmax: apparent, 37° C.; for Km: Tris-HCl pH 8.0, 0.3% Triton X-100, varied substrate, other fixed (LacβPro-triazole-C14 2.0 mM or CMP-Neu5Ac 4.0 mM); for kcat: pH 8.0; for Vmax: pH 8.0, enzyme 14 μM
Description: Reactions were carried out at 37° C. for […] in a total volume of 15 μl in Tris-HCl buffer (200 mM, pH 8.0) containing 2-mercaptoethanol (1 mM), 0.3% Triton X-100, enzyme (14 μM), with varied CMP-Neu5Ac concentrations (0.25, 0.5, 1.0, 2.0, 5.0, and 10.0 mM) and a fixed LacβPro-triazole-C14 (2.0 mM) concentration, or varied LacβPro-triazole-C14 concentrations (0.5, 1.0, 2.0, 5.0, 10.0, and 20.0 mM) or varied LacβPro2AA concentrations (0.5, 1.0, 2.0, 5.0, 10.0, and 25.0 mM) and a fixed CMP-Neu5Ac concentration (4.0 mM). HPLC assays were used for reactions with LacβPro2AA as the sialyltransferase acceptor and CE assays were used for reactions with LacβPro-triazole-C14 as the sialyltransferase acceptor. Apparent kinetic parameters were obtained by fitting the data (the average values of duplicate assay results) into the Michaelis-Menten equation using Grafit 5.0.

MBP-PmST2-His6 [3] = target: T1, MBP-PmST2-His6; assay: Time-course study of α-2,3-sialyltransferase activity; format: biochemical; conditions: acceptor 2 mM, CMP-Neu5Ac 8 mM, 37° C., pH 8.0
Description: (§1) Enzymatic reactions were performed in a total volume of 20 μl (when LacβPro2AA was used as an acceptor) or 40 μl (when LacβPro-triazole-C 14 was used as an acceptor) in a Tris-HCl buffer (200 mM, pH 8.0) containing an acceptor (2 mM of LacβPro2AA or LacβPro-triazole-C14), CMP-Neu5Ac (8 mM), 0.3% Triton X-100, and a sialyltransferase ([…] MBP-PmST2-His6 or PmST1) at 37° C. At different time points (0, 1, 5, 10, 15, 20, 30, and 60 min), 1.5 μl aliquots were taken from the LacβPro2AA reaction and pre-chilled 12% acetonitrile aqueous solution (148.5 μl) was added to each aliquot. Similarly, 3.5 μl aliquots were taken from the LacβPro-triazole-C14 reaction at different time points and pre-chilled 95% ethanol (7 μl) was added to each aliquot. All samples were kept on ice for 10 min and then centrifuged for 5 min at 13,000 rpm. Supernatants from LacβPro2AA reactions were analyzed by a Shimadzu LC-2010A HPLC system equipped with a membrane on-line degasser, a temperature control unit, and a fluorescence detector (the excitation wavelength was set at 315 nm and the emission wavelength was set at 400 nm) using a reverse phase Premier C18 column (250×4.6 mm I.D., 5 μm particle size, Shimadzu) protected with a C18 guard column cartridge. Mobile phase used was 12% acetonitrile in water. Supernatants from LacβPro-triazole-C14 reactions were analyzed by a Beckman P/ACE MDQ capillary electrophoresis (CE) system (60 cm×75 μm i.d.) equipped with a PDA detector (optimal absorption at 214 nm). The running buffer used was sodium borate buffer (50 mM, pH 10.2) containing β-cyclcodextrin (20 mM).

PmST1 [4] = target: T2, PmST1 (Pasteurella multocida, UniProt Q15KI8); assay: as above; format: biochemical
T2 sequence (Q15KI8 entry or part of it): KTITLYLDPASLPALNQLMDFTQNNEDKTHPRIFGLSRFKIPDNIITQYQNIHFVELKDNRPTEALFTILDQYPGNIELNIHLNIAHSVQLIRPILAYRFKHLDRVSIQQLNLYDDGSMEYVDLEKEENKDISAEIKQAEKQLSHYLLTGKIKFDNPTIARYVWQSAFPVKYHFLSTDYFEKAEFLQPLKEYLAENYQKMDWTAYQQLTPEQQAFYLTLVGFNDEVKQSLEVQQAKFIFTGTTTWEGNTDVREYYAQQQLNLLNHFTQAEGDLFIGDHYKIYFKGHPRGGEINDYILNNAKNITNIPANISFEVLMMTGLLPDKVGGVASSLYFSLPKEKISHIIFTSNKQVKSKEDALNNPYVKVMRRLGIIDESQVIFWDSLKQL
Description: as §1

MBP-PmST2-His6 [5] = target: T1, MBP-PmST2-His6; assay: pH profile of α2-3-sialyltransferase reaction; format: biochemical; conditions: acceptor 2 mM, 0.3% Triton X-100
Description: Each reaction was carried out in duplicate at 37° C. for 15 min in a buffer (200 mM) with a total volume of 15 μl containing an acceptor (2 mM, LacβPro2AA or LacβPro-triazole-C14), CMP-Neu5Ac (8 mM), 0.3% Triton X-100, and the enzyme MBP-PmST2-His6 (2.4 μg μl^−1). Buffers used were: NaOAc-HOAc (pH 4.0-6.0), Tris-HCl (pH 7.0-9.0), and CHES (pH 10.0). Enzymatic reactions were terminated by adding 15 μl of pre-chilled 95% ethanol. All samples were kept on ice for 10 min and then centrifuged at 13,000 rpm for 5 min. Supernatants were analyzed by HPLC (for LacβPro2AA reaction) or CE (for LacβPro-triazole-C14 reaction) as described above for the time course studies.

MBP-PmST2-His6 [6] = target: T1, MBP-PmST2-His6; format: biochemical; conditions: MnCl2/MgCl2 1, 5, 10 or 20 mM; EDTA or 2-ME 1 or 10 mM; acceptor LacβPro-triazole-C14
Description: Reactions were carried out in duplicate at 37° C. for 15 min in a total volume of 15 μl in a Tris-HCl buffer (200 mM, pH 8.0) containing LacβPro-triazole-C14 (2 mM), CMP-Neu5Ac (8 mM), 0.3% Triton X-100, and the enzyme (2.4 μg μl^−1). For metal effects, various concentrations (1, 5, 10, or 20 mM) of MgCl2 or MnCl2 were added and ethylenediaminetetraacetic acid (EDTA as chelating agent was used at two concentrations (1 or 10 mM). A reducing reagent 2-mercaptoethanol (2-ME) was used at two concentrations (1 or 10 mM). Reaction without metal ions, EDTA, or 2-ME was used as a control. All reactions were stopped by adding 15 μl of pre-chilled 95% ethanol and the reaction mixtures were kept on ice. The samples were centrifuged at 13,000 rpm for 5 min before the supernatants were analyzed by CE as described above.

[7] = tested on: N. meningitidis (MC58 and 406Y) Lst; conditions: previous report; cited from earlier work
PmST1 [8] = target: T2, PmST1; conditions: cited from earlier work

Galβ1-3GlcNAcαPro-triazole-C14
% product formation (MBP-PmST2-His6 [1]): <2% | % Relative (MBP-PmST2-His6 [1]): <6%

Galβ1-4GlcβPro-triazole-C14 [LacβPro-triazole-C14]
fold difference in KM values (stronger binding) versus LacβPro2AA (MBP-PmST2-His6 [2]): 7 fold | Km (MBP-PmST2-His6 [2]): 4100 ± 300 µM | kcat (MBP-PmST2-His6 [2]): 0.2 ± 0.017 s⁻¹ | Vmax (MBP-PmST2-His6 [2]): (1.7 ± 0.1) × 10^−1 mM min^−1 | fold higher catalytic activity versus LacβPro2AA as acceptor (MBP-PmST2-His6 [2]; from differences in KM and kcat): 10 fold | acceptor substrate for PmST2 (in words) (MBP-PmST2-His6 [1]): best acceptor substrate | % product formation (MBP-PmST2-His6 [1]): 36.1 ± 1.5% | % Relative (MBP-PmST2-His6 [1]): 100% | sialylation achieved in 1 hour (MBP-PmST2-His6 [3]): 60% | time at which the sialyltransferase reaction reached optimum (PmST1 [4]; acceptor 2 mM, CMP-Neu5Ac 8 mM, 37° C., pH 8.0): 15 min | product formation at optimum (PmST1 [4]; at 15 min): less than 5% | optimal pH range with this acceptor (MBP-PmST2-His6 [5]): 5.0-8.0

CCCCCCCCCCCCCCc1cn(CCCOC2OC(CO)C(O)C(OC3OC(CO)C(O)C(O)C3O)C2NC(C)=O)nn1 (stereo not shown) [Galβ1-3GlcNAcβPro-triazole-C14]
% product formation (MBP-PmST2-His6 [1]): <4% | % Relative (MBP-PmST2-His6 [1]): <11%

O=C(O)CN(CCN(CC(=O)O)CC(=O)O)CC(=O)O [EDTA, ethylenediaminetetraacetic acid, reference compound]
effect on α2,3-sialyltransferase activity (in words) (MBP-PmST2-His6 [6]): did not affect the activity significantly

cytidine 5′-monophosphate N-acetylneuraminic acid [CMP-Neu5Ac, reference compound]
Km (MBP-PmST2-His6 [2]): 1300 ± 100 µM | kcat (MBP-PmST2-His6 [2]): 0.0883 ± 0.0067 s⁻¹ | Vmax (MBP-PmST2-His6 [2]): (7.4 ± 0.5) × 10^−2 mM min^−1

CCCCCCCCCCCCCCc1cn(CCCO[C@H]2O[C@H](CO)[C@H](O)[C@H](O[C@@H]3O[C@H](CO)[C@H](O)[C@H](O)[C@H]3O)[C@H]2NC(C)=O)nn1 [Galβ1-3GalNAcαPro-triazole-C14]
% product formation (MBP-PmST2-His6 [1]): <2% | % Relative (MBP-PmST2-His6 [1]): <6%

[Cl-].[Cl-].[Mg+2] [MgC12, MgCl2]
effect on α2,3-sialyltransferase activity (in words) (MBP-PmST2-His6 [6]): did not affect the activity significantly | stimulation of activity [7]: 2 fold | effect on sialyltransferase activity of PmST1 (in words) (PmST1 [8]): does not stimulate or change the sialyltransferase activity

OCCS [2-mercaptoethanol, reference compound]
effect on α2,3-sialyltransferase activity (in words) (MBP-PmST2-His6 [6]): did not affect

lactosyl ceramide [reference compound]
acceptor substrate for PmST2 (in words) (MBP-PmST2-His6 [1]): not an acceptor

CCCCCCCCCCCCCCc1cn(CCCOC2OC(CO)C(O)C(O)C2O)nn1 (stereo not shown) [GalβPro-triazole-C14]
% product formation (MBP-PmST2-His6 [1]): 9.2 ± 1.3% | % Relative (MBP-PmST2-His6 [1]): 25.5%

Galβ1-4GlcNAcβPro-triazole-C14 [LacNAcβPro-triazole-C14]
% product formation (MBP-PmST2-His6 [1]): 18.5 ± 2.7% | % Relative (MBP-PmST2-His6 [1]): 51.2%

[Cl][Mn][Cl] [MnC12, MnCl2]
effect on α2,3-sialyltransferase activity (in words) (MBP-PmST2-His6 [6]): did not affect the activity significantly | stimulation of activity [7]: 3 fold | effect on sialyltransferase activity of PmST1 (in words) (PmST1 [8]): activity decreases
